Legend:
[1] = in vivo
Method: (§1) The infusion was therefore discontinued and 250 mL of fresh frozen plasma was administered over 3 hours.

[2] = tested on: patient with severe, chronic hypervitaminosis A; details: human, in vivo
Method: as §1

## 2-hydroxypropyl-β-cyclodextrin
[1]
  LDM: 536 U/L
  Serum pH and concentrations of glucose, protein, albumin, calcium, phosphate, and hepatic transaminases: remained normal throughout the infusion
  chloride: 107 M EQ/L
  sodium: 138 M EQ/L
[2]
  symptoms during infusion: generalized irritability and pain in the legs and shins

Source: patent US4877778A, “Method of enhancing lipophile transport using cyclodextrin derivatives” (priority 1987, dated 1989)
